{"source": "ChEMBL document CHEMBL1201862", "about": "“PubChem BioAssay data set” (2004)", "key": {"[1]": {"experiment": "inhibitors of Bluetongue virus cytopathic effect, confirmation, arbovirus, BSR cells (AID 1250);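 further: protection from viral cytopathic effect measured as cell viability by ATP luminescence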", "type": "functional"}, "DNA topoisomerase": {"target": "DNA topoisomerase (Yersinia pestis, UniProt A0A2S9PM60)", "sequence (A0A2S9PM60 whole entry)": "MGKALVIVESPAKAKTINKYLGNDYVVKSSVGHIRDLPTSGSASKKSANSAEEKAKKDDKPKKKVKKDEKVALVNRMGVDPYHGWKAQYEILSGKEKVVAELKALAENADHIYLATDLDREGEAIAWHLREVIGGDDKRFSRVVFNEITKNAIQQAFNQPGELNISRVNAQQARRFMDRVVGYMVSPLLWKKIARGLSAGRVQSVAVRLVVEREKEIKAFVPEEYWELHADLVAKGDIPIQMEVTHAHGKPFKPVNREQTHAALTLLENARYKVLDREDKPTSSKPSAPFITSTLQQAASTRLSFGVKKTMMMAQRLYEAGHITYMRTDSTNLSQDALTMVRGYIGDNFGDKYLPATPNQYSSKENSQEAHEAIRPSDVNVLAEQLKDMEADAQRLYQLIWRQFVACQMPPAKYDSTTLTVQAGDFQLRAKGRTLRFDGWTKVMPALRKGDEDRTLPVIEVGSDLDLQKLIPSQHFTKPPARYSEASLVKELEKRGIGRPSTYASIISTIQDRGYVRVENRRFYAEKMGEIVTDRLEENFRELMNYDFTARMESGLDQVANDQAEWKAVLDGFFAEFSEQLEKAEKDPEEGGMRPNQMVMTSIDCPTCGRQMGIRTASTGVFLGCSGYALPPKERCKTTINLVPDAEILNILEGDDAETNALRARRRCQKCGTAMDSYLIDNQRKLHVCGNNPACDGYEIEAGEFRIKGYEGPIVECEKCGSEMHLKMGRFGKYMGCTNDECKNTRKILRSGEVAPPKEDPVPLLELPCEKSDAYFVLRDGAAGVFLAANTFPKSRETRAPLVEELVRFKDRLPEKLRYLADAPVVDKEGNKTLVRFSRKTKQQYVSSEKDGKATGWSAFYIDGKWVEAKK", "experiment": "Y. pestis Topo-I inhibitors, cleavage product readout, dose response, biochemical, cherry-pick (AID 588525)"}, "Estrogen receptor": {"target": "T1, Estrogen receptor (Homo sapiens, UniProt P03372)", "T1 sequence (P03372 whole entry)": "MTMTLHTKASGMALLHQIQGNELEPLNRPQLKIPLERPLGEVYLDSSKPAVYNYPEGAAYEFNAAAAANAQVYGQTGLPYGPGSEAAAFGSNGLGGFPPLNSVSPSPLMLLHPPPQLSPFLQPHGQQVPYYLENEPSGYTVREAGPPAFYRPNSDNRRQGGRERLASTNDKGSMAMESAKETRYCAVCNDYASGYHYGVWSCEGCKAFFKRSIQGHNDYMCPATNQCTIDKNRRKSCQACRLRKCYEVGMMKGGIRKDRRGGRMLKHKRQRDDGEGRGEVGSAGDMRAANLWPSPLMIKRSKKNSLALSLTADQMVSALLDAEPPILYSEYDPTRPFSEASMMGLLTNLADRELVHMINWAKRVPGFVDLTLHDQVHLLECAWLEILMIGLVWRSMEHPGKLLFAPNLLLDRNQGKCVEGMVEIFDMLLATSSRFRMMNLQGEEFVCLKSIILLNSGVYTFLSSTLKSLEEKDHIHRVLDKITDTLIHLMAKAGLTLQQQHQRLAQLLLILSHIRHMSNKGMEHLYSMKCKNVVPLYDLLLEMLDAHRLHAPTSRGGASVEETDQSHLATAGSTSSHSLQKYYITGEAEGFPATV", "experiment": "potentiators of ERα–SRC-1 coactivator binding, dose response, biochemical, TR-FRET, ERα LBD (AID 737)"}, "[2]": {"target": "T2, Neuropeptide Y receptor type 1 (Homo sapiens, UniProt P25929)", "T2 sequence (P25929 whole entry)": "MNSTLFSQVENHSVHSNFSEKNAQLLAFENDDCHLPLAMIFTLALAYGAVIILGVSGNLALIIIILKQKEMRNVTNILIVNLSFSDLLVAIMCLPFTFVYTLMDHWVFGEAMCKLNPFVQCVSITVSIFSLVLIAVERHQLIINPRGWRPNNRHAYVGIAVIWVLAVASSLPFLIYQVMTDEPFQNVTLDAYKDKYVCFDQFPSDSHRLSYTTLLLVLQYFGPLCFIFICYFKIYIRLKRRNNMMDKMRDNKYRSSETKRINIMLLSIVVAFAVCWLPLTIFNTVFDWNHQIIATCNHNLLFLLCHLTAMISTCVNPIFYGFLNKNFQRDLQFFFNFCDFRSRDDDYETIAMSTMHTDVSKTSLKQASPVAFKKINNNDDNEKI", "experiment": "Fluorescence-based counterscreen for agonists of NPY-Y2: cell-based high-throughput dose response assay for agonists of NPY-Y1.", "type": "functional"}, "[3]": {"target": "T3, Neuropeptide Y receptor type 2 (Homo sapiens, UniProt P49146)", "T3 sequence (P49146 whole entry)": "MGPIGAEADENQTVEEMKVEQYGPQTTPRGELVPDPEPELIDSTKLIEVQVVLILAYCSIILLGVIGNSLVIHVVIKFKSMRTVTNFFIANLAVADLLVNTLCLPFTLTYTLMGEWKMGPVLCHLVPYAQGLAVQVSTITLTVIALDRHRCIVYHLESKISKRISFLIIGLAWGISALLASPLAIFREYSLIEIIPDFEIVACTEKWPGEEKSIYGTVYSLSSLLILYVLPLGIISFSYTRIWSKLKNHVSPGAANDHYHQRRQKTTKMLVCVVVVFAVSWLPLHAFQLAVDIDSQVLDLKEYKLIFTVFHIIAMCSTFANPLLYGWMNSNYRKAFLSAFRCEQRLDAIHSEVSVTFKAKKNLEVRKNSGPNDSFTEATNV", "experiment": "Fluorescence-based cell-based high-throughput dose response assay for agonists of NPY-Y2. [Related pubchem assays: 1703 (Screening assay (CNGC inhibitors).), 1359 (Screening assay (NPY-Y2 potentiators or agonists).), 1304 (Screening assay (NPY-Y1 potentiators or agonists).), 1710 (Screening assay (NPY-Y2 agonists).), 1791 (Summary AID.)]", "type": "functional"}, "[4]": {"target": "T3, Neuropeptide Y receptor type 2", "experiment": "Fluorescence-based cell-based high-throughput dose response assay for potentiators or agonists of NPY-Y2. [Related pubchem assays: 1539 (Screening assay (NPY-Y2 potentiators or agonists).), 1703 (Screening assay (CNGC inhibitors).), 1359 (Screening assay (NPY-Y2 potentiators or agonists).), 1304 (Screening assay (NPY-Y1 potentiators or agonists).) …", "type": "functional"}, "HEK293": {"system": "HEK293", "experiment": "Fluorescence-based counterscreen for potentiators or agonists of NPY-Y2: cell-based high-throughput dose response assay to identify inhibitors of cyclic nucleotide gated ion channel (CNGC) activity. In this assay, the parental HEK293 cell line transfected with a cyclic-nucleotide gated ion channel (CNGC)-based cAMP sensor is used to measure inhibition of isoproterenol-induced CNGC activity by test compound.", "type": "functional", "conditions": "Homo sapiens"}, "[5]": {"target": "T2, Neuropeptide Y receptor type 1", "experiment": "Fluorescence-based counterscreen for potentiators or agonists of NPY-Y2: cell-based high-throughput dose response assay for potentiators or agonists of NPY-Y1.", "type": "functional"}, "[6]": {"experiment": "Artemis endonuclease inhibitor potency, dose response, biochemical, fluorescence intensity (AID 720701);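 further: Artemis endonuclease enzyme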", "type": "functional"}, "NS3": {"target": "NS3 (Hepatitis C virus, UniProt A3EZJ3)", "sequence (A3EZJ3 whole entry)": "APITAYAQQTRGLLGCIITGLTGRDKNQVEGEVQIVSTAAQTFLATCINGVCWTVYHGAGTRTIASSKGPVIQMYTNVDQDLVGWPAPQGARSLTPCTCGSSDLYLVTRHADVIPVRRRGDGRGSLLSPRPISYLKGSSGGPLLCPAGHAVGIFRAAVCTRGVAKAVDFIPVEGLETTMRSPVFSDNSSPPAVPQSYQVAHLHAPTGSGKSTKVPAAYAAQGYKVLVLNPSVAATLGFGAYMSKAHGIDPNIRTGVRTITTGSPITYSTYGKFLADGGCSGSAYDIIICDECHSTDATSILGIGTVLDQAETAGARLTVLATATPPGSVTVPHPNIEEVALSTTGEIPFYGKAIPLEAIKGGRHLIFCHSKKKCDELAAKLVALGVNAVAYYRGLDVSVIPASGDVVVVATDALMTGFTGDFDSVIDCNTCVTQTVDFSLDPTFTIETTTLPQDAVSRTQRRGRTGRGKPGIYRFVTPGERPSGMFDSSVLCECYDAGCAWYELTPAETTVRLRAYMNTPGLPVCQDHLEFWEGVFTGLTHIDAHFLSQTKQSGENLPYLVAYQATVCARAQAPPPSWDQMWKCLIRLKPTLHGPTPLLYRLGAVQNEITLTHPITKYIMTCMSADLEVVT", "experiment": "PubChem AID 2173", "set-up": "species or system Hepacivirus hominis"}, "[7]": {"target": "T4, Carboxy-terminal domain RNA polymerase II polypeptide A small phosphatase 1 (Homo sapiens, UniProt Q9GZU7)", "T4 sequence (Q9GZU7 whole entry)": "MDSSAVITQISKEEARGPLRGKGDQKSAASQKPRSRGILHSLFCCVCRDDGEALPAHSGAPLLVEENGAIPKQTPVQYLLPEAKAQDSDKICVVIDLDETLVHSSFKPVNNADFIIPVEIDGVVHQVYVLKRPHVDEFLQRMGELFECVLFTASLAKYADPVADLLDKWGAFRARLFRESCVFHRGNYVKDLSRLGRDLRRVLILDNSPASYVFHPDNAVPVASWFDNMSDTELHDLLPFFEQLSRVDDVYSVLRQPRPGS", "experiment": "inhibitors of CTDSP1, concentration-response testing, biochemical assay, absorbance-based, actives from ultra-high-throughput screening (AID 540297)", "type": "functional"}, "[8]": {"target": "Induced myeloid leukemia cell differentiation protein Mcl-1 (Homo sapiens, UniProt Q07820)", "sequence (Q07820 whole entry)": "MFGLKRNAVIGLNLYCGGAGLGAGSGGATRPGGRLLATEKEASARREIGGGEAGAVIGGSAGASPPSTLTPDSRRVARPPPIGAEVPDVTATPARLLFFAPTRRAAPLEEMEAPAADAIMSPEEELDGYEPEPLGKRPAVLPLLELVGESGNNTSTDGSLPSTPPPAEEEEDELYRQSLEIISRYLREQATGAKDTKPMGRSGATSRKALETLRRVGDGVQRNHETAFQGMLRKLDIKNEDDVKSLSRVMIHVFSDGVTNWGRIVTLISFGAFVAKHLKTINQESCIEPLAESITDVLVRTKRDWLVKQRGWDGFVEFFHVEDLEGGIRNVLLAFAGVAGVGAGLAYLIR", "type": "functional"}, "[9]": {"experiment": "M. tuberculosis H37Rv growth inhibitors, H37Rv strain (AID 1626)", "type": "functional"}, "cells [10]": {"experiment": "cells", "type": "functional"}, "Bcl-2-related protein A1 [11]": {"target": "T5, Bcl-2-related protein A1 (Mus musculus, UniProt Q07440)", "T5 sequence (Q07440 whole entry)": "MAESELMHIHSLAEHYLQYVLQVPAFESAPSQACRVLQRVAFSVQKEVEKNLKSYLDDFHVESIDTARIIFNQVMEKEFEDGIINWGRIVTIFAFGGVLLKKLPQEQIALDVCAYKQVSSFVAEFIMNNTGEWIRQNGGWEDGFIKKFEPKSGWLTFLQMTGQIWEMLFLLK", "experiment": "Bfl-1 binding inhibitors, SAR follow-up, biochemical, fluorescence polarization (AID 1070)"}, "Bcl-2-related protein A1 [12]": {"target": "T5, Bcl-2-related protein A1", "experiment": "Bfl-1 inhibitors blocking BH3 peptide binding, confirmation, biochemical, TR-FRET, mouse Bfl-1 (AID 621);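 further: TR-FRET binding of GST-Bfl-1 to FITC-labelled Bid peptide via terbium antibody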"}, "[13]": {"experiment": "HEp-2 cell cytotoxicity, dose response, cytotoxicity control for RSV inhibitor project, HTS (AID 2410)", "type": "functional", "conditions": "human respiratory syncytial virus"}, "cells [14]": {"experiment": "cells", "type": "functional, cell-based"}, "[15]": {"experiment": "Luminescence Cell-Based Dose Response HTS to Identify Inhibitors of 5'UTR Stem-Loop Driven Prion Protein mRNA Translation in H4 Neuroglioblastoma Cells. [Related pubchem assays: 1827 (Project Summary), 1813 (Primary HTS)]", "type": "functional"}, "BJ [16]": {"system": "BJ", "experiment": "cytotoxicity toward BJ-TERT fibroblasts, dose response, cell-based, RAS-independent, luminescence (AID 1933)", "type": "functional", "conditions": "Homo sapiens"}, "BJ [17]": {"system": "BJ", "experiment": "cytotoxicity toward BJ-TERT-LT-ST fibroblasts, dose response, cell-based, RAS-independent, luminescence (AID 1935);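 further: BJ fibroblasts immortalized with TERT plus LT and ST oncogenes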", "type": "functional", "conditions": "Homo sapiens"}, "[18]": {"experiment": "inhibitors of SNCA 5'UTR-driven reporter translation, confirmation, H4 neuroglioma cells, luminescence (AID 1988)", "type": "functional, cell-based"}, "[19]": {"experiment": "cytotoxicity toward DRD oncogenic fibroblasts, dose response, cell-based, non-viral oncogenic, luminescence (AID 1934)", "type": "functional", "conditions": "Homo sapiens"}, "[20]": {"experiment": "inhibitors of SNCA 5'UTR-driven translation, confirmation, luminescence, H4 neuroglioblastoma cells, dose confirmation (AID 2454);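 further: H4 neuroglioblastoma cells carrying an alpha-synuclein 5'UTR luciferase reporter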", "type": "functional, cell-based"}, "BJ [21]": {"system": "BJ", "experiment": "cells", "type": "functional, cell-based", "conditions": "Homo sapiens"}, "[22]": {"experiment": "luciferase reporter signal reduction – luminescence, H4-C neuroglioblastoma cells, dose response (AID 2458);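 further: H4 neuroglioblastoma cells stably carrying a luciferase reporter gene fusion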", "type": "functional, cell-based"}, "[23]": {"experiment": "inhibitors of firefly luciferase expression or activity, dose response, H4 neuroglioma cells, luminescence (AID 1990)", "type": "functional, cell-based"}, "BJ [24]": {"system": "BJ", "experiment": "cytotoxicity toward Ras-transformed BJeLR fibroblasts, dose response, cell-based, alamar blue fluorescence, cherrypicked samples (AID 2631);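 further: confirmatory dose-response assay in RAS-dependent BJ fibroblasts engineered with TERT, LT and ST, with cytotoxicity read by fluorescence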", "type": "functional", "conditions": "Homo sapiens"}}, "note": "Active and inactive are the calls of the source."}
{"smiles": "CC(=O)/C(=N/Nc1cccc(Cl)c1)Sc1nnc(C(O)c2ccccc2)n1-c1ccccc1", "note": "(stereo not drawn)", "values": [{"measurement": "IC50", "setting": "[1]", "value": "37.7 µM (active)"}]}
{"smiles": "CCc1ccc(Nc2nc(N)nc(CSc3nnnn3-c3ccccc3)n2)cc1", "values": [{"measurement": "AC50", "setting": "DNA topoisomerase", "value": "6.16 µM (active)"}, {"measurement": "EC50", "setting": "Estrogen receptor", "value": "4.76 µM (active)"}]}
{"smiles": "CCN(CC)CC(O)Cn1c2ccccc2c2ccccc21", "note": "(stereo not drawn)", "values": [{"measurement": "EC50", "setting": "[2]", "value": "12.5 µM (not active)"}, {"measurement": "EC50", "setting": "[3]", "value": "29.6 µM (not active)"}, {"measurement": "EC50", "setting": "[4]", "value": "> 35.4 µM (not active)"}, {"measurement": "EC50", "setting": "HEK293", "value": "1.49 µM (active)"}, {"measurement": "EC50", "setting": "[5]", "value": "> 35.4 µM (not active)"}]}
{"smiles": "O=C(Nc1nc(-c2ccco2)c(-c2ccco2)s1)C1CC(=O)N(c2ccc3c(c2)OCCO3)C1", "note": "(stereo not drawn)", "values": [{"measurement": "IC50", "setting": "[6]", "value": "> 20 µM (inactive)"}, {"measurement": "IC50", "setting": "NS3", "value": "26.3 µM (not active)"}, {"measurement": "IC50", "setting": "[7]", "value": "3.1 µM (active)"}, {"measurement": "IC50", "setting": "[8]", "value": "4.4 µM (active)"}]}
{"smiles": "O=C(Nc1nc2ccccc2[nH]1)c1cccc([N+](=O)[O-])c1", "values": [{"measurement": "IC50", "setting": "[9]", "value": "> 100 µM (active)"}, {"measurement": "IC50", "setting": "cells [10]", "value": "4.91 µM (active)"}]}
{"smiles": "COc1ccc2nc(O)c(-c3nnn(-c4ccc(Cl)c(Cl)c4)n3)cc2c1", "values": [{"measurement": "IC50", "setting": "Bcl-2-related protein A1 [11]", "value": "> 100 µM (not active)"}, {"measurement": "IC50", "setting": "Bcl-2-related protein A1 [12]", "value": "> 100 µM (not active)"}, {"measurement": "CC50", "setting": "[13]", "value": "> 50 µM (active)"}]}
{"smiles": "COc1ccc(S(=O)(=O)N2c3ccc(F)cc3CCC2C)cc1", "note": "(stereo not drawn)", "values": [{"measurement": "EC50", "setting": "cells [14]", "value": "> 12 µM (inconclusive)"}, {"measurement": "EC50", "setting": "[15]", "value": "< 0.1 µM (active)"}, {"measurement": "EC50", "setting": "BJ [16]", "value": "0.675 µM (active)"}, {"measurement": "EC50", "setting": "BJ [17]", "value": "0.716 µM (inconclusive)"}, {"measurement": "EC50", "setting": "[18]", "value": "< 0.1 µM (active)"}, {"measurement": "EC50", "setting": "[19]", "value": "0.776 µM (active)"}, {"measurement": "EC50", "setting": "[20]", "value": "1.01 µM (active)"}, {"measurement": "EC50", "setting": "BJ [21]", "value": "1.21 µM (inconclusive)"}, {"measurement": "EC50", "setting": "[22]", "value": "0.757 µM (active)"}, {"measurement": "EC50", "setting": "[23]", "value": "1.8 µM (active)"}, {"measurement": "EC50", "setting": "BJ [24]", "value": "0.25 µM (active)"}]}
